Data from ChEMBL document CHEMBL1134380, “Discovery and optimization of a novel series of thrombin receptor (par-1) antagonists: potent, selective peptide mimetics based on indole and indazole templates” (J Med Chem, 2001).

Assays:
[1] = In vitro antagonist activity against SFLLRN-NH2 induced gel-filtered platelet (GFP) aggregation at 2 uM; assay type: functional
[2] = Calcium flux by RASMC Calcium mobilization assay at 2.0 nM alpha thrombin.; assay type: functional; set-up: unit not given here
[3] = In vitro antagonist activity against U-46,619 induced gel-filtered Platelet (GFP) aggregation at 50 uM; NA=Inactive; assay type: functional
[4] = Proliferation by RASMC proliferation assay at 0.8 nM alpha thrombin.; set-up: unit not given here
[5] = target: T1, Proteinase-activated receptor 1 (Homo sapiens, UniProt P25116); test: Binding affinity against Protease-activated receptor (PAR-1) using [3H]-s-(p-F-Phe)-homoarginine-L-homoarginine-KY-NH2, 10 nM (Kd= 15 nM)
T1 sequence (P25116 whole entry): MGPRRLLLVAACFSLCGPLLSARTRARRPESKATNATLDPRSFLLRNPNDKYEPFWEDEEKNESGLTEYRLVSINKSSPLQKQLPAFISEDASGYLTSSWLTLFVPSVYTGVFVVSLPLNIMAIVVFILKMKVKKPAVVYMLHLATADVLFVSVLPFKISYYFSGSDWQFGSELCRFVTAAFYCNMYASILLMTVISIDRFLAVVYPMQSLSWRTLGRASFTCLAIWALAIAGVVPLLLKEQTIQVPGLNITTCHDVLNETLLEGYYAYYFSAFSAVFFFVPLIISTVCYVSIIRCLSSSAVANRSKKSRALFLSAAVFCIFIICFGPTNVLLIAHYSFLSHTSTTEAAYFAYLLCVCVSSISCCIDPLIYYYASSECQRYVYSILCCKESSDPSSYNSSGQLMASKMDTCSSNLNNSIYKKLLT

[6] = Calcium flux by HMVEC Calcium mobilization assay at 2.0 nM alpha thrombin.; assay type: functional; set-up: unit not given here
[7] = in vitro antagonist activity against U-46,619 induced gel-filtered Platelet (GFP) aggregation at 0.3 uM; assay type: functional
[8] = In vitro antagonist activity against collagen induced gel-filtered platelet (GFP) aggregation at 3 ug/mL
[9] = In vitro antagonist activity against U-46,619 induced gel-filtered Platelet (GFP) aggregation at 0.3 uM; assay type: functional
[10] = target: T1, Proteinase-activated receptor 1; test: Binding Affinity of ligand against Protease-activated Receptor (PAR-1) using [3H]-s-(p-F-Phe)-homoarginine-L-homoarginine-KY-NH2, 10 nM (Kd= 15 nM)

Row | IC50 [1] [nM] | IC50 [5] [nM] | IC50 [7] [µM] | IC50 [8] [µM] | IC50 [9] [µM] | IC50 [10] [nM] | SMILES | Ca2+ flux [2] | IC50 [3] | Proliferation [4] | Ca2+ flux [6]
1 | 360 | 40 | 13.3 |  |  |  | N=C(N)NCCC[C@H](NC(=O)[C@H](Cc1ccc(F)c(F)c1)NC(=O)Nc1ccc2c(CN3CCCC3)cn(Cc3c(Cl)cccc3Cl)c2c1)C(=O)NCc1ccncc1 | 0.21 |  | 6.5 | 0.17
2 | 300 | 700 |  | 12.7 |  |  | N=C(N)NCCC[C@H](NC(=O)[C@H](Cc1ccccc1)NC(=O)Nc1ccc2c(CN3CCCC3)cn(Cc3ccc(F)cc3)c2c1)C(=O)NCc1ccccc1 |  |  |  | 
3 | 3200 | 2400 |  | 24.2 | 25.5 |  | COc1ccc(C[C@H](NC(=O)Nc2ccc3c(CN4CCCC4)cn(Cc4ccc(OC(F)(F)F)cc4)c3c2)C(=O)N[C@@H](CCCN=C(N)N)C(=O)NCc2ccccc2)cc1 |  |  |  | 
4 | 2200 | 10700 |  | 41.4 | 49.1 |  | COc1ccc(C[C@H](NC(=O)Nc2ccc3c(CNC4CCCC4)cn(Cc4ccc(F)cc4)c3c2)C(=O)N[C@@H](CCCN=C(N)N)C(=O)NCc2ccccc2)cc1 |  |  |  | 

The next lines start with the compound.

Row | SMILES | IC50 [1] [nM] | IC50 [5] [nM] | IC50 [7] [µM] | IC50 [8] [µM] | IC50 [9] [µM] | IC50 [10] [nM] | Ca2+ flux [2] | IC50 [3] | Proliferation [4] | Ca2+ flux [6]
5 | N=C(N)NCCC[C@H](NC(=O)[C@H](Cc1ccc(F)c(F)c1)NC(=O)Nc1ccc2c(CN3CCCC3)cn(Cc3c(Cl)cccc3Cl)c2c1)C(=O)NCc1ccccc1 | 180 | 820 |  |  |  |  | 0.13 | Not Active | 2.4 | 0.09
6 | COc1ccc(C[C@H](NC(=O)Nc2ccc3c(CN4CCCC4)cn(Cc4c(Cl)cccc4Cl)c3c2)C(=O)N[C@@H](CCCNC(=N)N)C(=O)NCc2ccccc2)cc1 [RWJ-54003] | 300 | 1300 |  | 46.3 |  |  | 0.93 | Not Active | 7.3 | 0.33
7 | NCC[C@H](NC(=O)[C@H](Cc1ccc(F)c(F)c1)NC(=O)Nc1ccc2c(CN3CCCC3)nn(Cc3c(Cl)cccc3Cl)c2c1)C(=O)NCc1ccccc1 [RWJ-58259] | 110 |  |  |  |  | 150 | 0.07 | Not Active | 2.3 | 
8 | COc1ccc(C[C@H](NC(=O)Nc2ccc3c(CN4CCCC4)cn(Cc4ccc(F)cc4)c3c2)C(=O)N[C@@H](CCCN=C(N)N)C(=O)NCc2ccccc2)cc1 | 270 | 2200 |  |  |  |  | 7.8 | Not Active | > 30 | 0.54
